From article PMC6272711, “5-Methoxyquinoline Derivatives as a New Class of EZH2 Inhibitors” (Molecules, 2015) come the findings set out here.

Entries after “also recorded” stand apart in the source; their conditions may differ. Read-outs that look alike come from different tables or passages of the source.

The subject of assay [1] is H3K27me3 level in MDA-MB-231 cell line. The assay is described as follows: Western blotting assay of H3K27me3 status. Format: cell-based, human. The note with it: MDA-MB-231 cells, treatment for 72 h, western blot, total H3 loading control. The protocol: The main catalytic activity of EZH2 is methylating histone 3 lysine 27 (H3K27), so evaluation of H3K27me3 was conducted through a western blotting assay.
Figure 3 Analysis of H3K27 methylation in MDA-MB-231 cell line treated with 1 and 5k. Evaluation of H3K27me3 following treatment for 72 h. Total H3 is shown as a loading control.
The western blotting assay of H3K27 status was performed as previously described.
For orientation: In western blotting, separated proteins are transferred to a membrane and probed.

A further assay concerns the target T1, SUV39H1 (Homo sapiens, UniProt O43463).
T1 sequence (O43463 1-412): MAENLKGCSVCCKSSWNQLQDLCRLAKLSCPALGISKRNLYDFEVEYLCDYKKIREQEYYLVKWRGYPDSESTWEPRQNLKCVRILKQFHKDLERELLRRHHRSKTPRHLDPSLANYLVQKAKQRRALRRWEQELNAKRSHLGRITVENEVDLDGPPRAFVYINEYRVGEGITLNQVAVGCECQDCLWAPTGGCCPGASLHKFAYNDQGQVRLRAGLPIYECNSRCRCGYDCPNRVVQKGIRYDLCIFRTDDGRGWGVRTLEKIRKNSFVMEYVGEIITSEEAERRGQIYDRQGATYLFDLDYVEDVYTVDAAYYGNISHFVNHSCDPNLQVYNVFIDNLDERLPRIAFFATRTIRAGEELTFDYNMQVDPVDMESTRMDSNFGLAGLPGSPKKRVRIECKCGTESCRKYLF
The assay can be described thus: Enzyme selectivity assay, SUV39H1. Type of assay: biochemical. Particulars: means of at least three measurements.

Another assay deals with MDA-MB-231. The assay is described as follows: MTT cell growth inhibition, MDA-MB-231. Type of assay: cell-based. The note with it: Homo sapiens, MDA-MB-231, 96 h, read-out: IC50 MDA-MB-231.
A further assay has as its target SETDB1 (Homo sapiens, UniProt Q15047). The assay is described as follows: Enzyme selectivity assay, SETDB1. Particulars: means of at least three measurements. Type of assay: biochemical.
For another assay, the target named is PRMT1 (Homo sapiens, UniProt Q99873). The assay can be described thus: Enzyme selectivity assay, PRMT1. Format: biochemical. Particulars: means of at least three measurements.
Sequence of PRMT1 (Q99873 whole entry, species assumed): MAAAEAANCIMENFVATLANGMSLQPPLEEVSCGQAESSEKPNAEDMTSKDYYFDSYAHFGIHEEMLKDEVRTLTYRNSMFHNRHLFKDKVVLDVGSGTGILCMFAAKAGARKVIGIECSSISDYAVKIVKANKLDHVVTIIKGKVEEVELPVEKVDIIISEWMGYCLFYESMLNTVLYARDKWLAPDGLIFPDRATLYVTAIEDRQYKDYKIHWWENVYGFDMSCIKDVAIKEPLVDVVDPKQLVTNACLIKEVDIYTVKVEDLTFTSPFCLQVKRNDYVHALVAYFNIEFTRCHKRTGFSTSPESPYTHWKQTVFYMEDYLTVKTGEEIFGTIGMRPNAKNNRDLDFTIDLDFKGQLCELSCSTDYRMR
A further assay relates to HCT15. The assay is described as follows: MTT cell growth inhibition, HCT15. Format: cell-based, human. The note with it: means of at least three measurements.
The target in another assay is T2, SMYD3 (Homo sapiens, UniProt Q9H7B4).
T2 sequence (Q9H7B4 1-428): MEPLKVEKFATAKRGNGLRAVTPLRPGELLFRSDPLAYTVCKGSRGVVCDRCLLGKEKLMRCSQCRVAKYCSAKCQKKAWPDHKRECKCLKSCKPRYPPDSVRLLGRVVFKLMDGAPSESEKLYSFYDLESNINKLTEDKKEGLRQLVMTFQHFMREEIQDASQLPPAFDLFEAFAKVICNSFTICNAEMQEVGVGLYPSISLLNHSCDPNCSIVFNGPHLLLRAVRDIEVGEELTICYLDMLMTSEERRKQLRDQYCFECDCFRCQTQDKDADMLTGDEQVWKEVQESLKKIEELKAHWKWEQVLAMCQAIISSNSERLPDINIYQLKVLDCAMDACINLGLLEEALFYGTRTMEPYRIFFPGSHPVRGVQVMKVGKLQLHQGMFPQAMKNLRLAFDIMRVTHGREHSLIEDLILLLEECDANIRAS
The assay is described as follows: Enzyme selectivity assay, SMYD3. Type of assay: biochemical. The note with it: means of at least three measurements.

Another assay concerns the target T3, SETD8 (Homo sapiens, UniProt Q9NQR1).
T3 sequence (Q9NQR1 1-393): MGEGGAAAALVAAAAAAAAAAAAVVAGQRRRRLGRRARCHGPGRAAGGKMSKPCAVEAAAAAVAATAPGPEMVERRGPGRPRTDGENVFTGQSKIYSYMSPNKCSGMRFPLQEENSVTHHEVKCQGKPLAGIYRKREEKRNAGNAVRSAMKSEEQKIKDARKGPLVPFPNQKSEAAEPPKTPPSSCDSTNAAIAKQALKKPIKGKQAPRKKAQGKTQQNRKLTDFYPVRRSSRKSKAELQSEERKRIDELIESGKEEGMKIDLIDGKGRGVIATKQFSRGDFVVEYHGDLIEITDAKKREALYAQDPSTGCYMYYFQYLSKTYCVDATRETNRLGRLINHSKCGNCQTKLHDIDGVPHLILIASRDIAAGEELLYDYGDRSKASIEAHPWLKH
The assay can be described thus: Enzyme selectivity assay, SETD8. Format: biochemical. The note with it: means of at least three measurements.

For a further assay, the target named is T4, G9a (Homo sapiens, UniProt Q96KQ7).
T4 sequence (Q96KQ7 1-1210): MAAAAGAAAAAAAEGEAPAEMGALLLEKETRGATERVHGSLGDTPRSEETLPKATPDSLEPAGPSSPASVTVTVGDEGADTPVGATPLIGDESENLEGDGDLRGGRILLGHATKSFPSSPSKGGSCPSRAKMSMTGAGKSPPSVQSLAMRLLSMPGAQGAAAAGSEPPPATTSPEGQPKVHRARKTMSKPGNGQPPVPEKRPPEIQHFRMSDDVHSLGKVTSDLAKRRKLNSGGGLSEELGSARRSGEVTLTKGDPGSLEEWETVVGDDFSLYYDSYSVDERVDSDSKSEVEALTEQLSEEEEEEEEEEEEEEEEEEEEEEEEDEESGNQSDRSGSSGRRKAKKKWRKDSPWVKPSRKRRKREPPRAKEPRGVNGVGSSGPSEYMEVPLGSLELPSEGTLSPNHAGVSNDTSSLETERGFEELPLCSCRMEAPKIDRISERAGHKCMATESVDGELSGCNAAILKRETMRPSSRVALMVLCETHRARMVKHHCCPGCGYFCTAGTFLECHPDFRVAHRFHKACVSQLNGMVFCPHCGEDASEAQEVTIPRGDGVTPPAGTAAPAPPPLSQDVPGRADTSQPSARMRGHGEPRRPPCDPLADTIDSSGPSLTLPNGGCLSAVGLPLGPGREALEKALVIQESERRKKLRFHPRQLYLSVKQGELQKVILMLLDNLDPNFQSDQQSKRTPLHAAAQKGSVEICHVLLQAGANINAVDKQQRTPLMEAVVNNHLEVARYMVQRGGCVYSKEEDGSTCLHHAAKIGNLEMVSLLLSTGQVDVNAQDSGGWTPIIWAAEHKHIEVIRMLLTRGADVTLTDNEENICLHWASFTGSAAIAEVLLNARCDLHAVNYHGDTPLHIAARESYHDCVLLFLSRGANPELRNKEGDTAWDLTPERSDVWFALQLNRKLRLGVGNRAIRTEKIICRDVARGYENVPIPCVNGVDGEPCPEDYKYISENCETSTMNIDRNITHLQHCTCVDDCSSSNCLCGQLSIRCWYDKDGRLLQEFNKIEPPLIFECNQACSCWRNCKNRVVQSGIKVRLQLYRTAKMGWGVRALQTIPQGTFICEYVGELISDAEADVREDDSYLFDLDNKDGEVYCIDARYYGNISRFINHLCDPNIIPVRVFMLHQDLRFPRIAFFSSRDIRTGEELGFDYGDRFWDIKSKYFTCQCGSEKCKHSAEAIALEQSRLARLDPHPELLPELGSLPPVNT
The assay can be described thus: Enzyme selectivity assay, G9a. Type of assay: biochemical. Particulars: means of at least three measurements.

As usually defined, the IC50 is the concentration that inhibits the measured activity by half. For the molecule `COc1cccc2nc(N3CCCN(C)CC3)cc(NC3CCN(C)CC3)c12` [Compound 5k, 5-Methoxy-2-(4-methyl-1,4-diazepan-1-yl)-N-(1-methylpiperidin-4-yl)quinolin-4-amine], the H3K27me3 level result in assay [1] was “decreased global H3K27me3 level in cells; also recorded: obviously down-regulated”. Moreover, the IC50 against SUV39H1 was found to be 21.2 ± 0.28 µM; with MDA-MB-231, 2.45 ± 0.24 µM; against SETDB1, 27 ± 1.36 µM; at PRMT1, 28.8 ± 1.25 µM; in the assay with HCT15 (Homo sapiens, HCT-15, 96 h, read-out: IC50 HCT15, MTT, treatment 96 h) it was 5.6 µM; in the assay on HCT15 (read-out: IC50 HCT15, MTT, treatment 96 h), 7.6 ± 0.46 µM. Also, the IC50 came to 35.4 ± 1.97 µM against SMYD3, 40 ± 2.71 µM against SETD8 and 82.6 ± 2.23 µM against G9a.
